Measurements reported in the CheMixHub viscosity set.

Assay: xn = mol fraction of the nth substance listed

CC(C)=O + CCCCO
Settings	viscosity [mPa·s]
298.15 K, 101 kPa, x1 = 0.12	1.65
298.15 K, 101 kPa, x1 = 0.24	1.164
298.15 K, 101 kPa, x1 = 0.35	0.8875
298.15 K, 101 kPa, x1 = 0.46	0.7108
298.15 K, 101 kPa, x1 = 0.56	0.5919
298.15 K, 101 kPa, x1 = 0.66	0.5089
298.15 K, 101 kPa, x1 = 0.75	0.4285
298.15 K, 101 kPa, x1 = 0.84	0.4014
298.15 K, 101 kPa, x1 = 0.92	0.3651
303.15 K, 101.33 kPa, x1 = 0.1152	1.535
303.15 K, 101.33 kPa, x1 = 0.2307	1.127
303.15 K, 101.33 kPa, x1 = 0.3341	0.879
303.15 K, 101.33 kPa, x1 = 0.4685	0.642
303.15 K, 101.33 kPa, x1 = 0.7032	0.427
303.15 K, 101.33 kPa, x1 = 0.7974	0.368

CC1COC(=O)O1 (configuration not stated) + CCCCO
298 K, 101.3 kPa
Settings	viscosity [mPa·s]
x1 = 0.0202	2.541
x1 = 0.0403	2.511
x1 = 0.0604	2.482
x1 = 0.08	2.452
x1 = 0.1006	2.423
x1 = 0.2005	2.287
x1 = 0.3006	2.167
x1 = 0.4003	2.074
x1 = 0.5	2.016
x1 = 0.6001	1.999
x1 = 0.7	2.031
x1 = 0.8004	2.12
x1 = 0.9	2.271

CCCCn1cc[n+](C)c1.O=S(=O)([O-])C(F)(F)F + CCCCO
100 kPa
Settings	viscosity [mPa·s]
298.15 K, x1 = 0.2147	6.17
298.15 K, x1 = 0.2908	8.85
298.15 K, x1 = 0.9078	62.73
303.15 K, x1 = 0.2147	5.08
303.15 K, x1 = 0.2908	6.92
303.15 K, x1 = 0.9078	50.78
308.15 K, x1 = 0.2908	6.03
313.15 K, x1 = 0.4008	9.48
318.15 K, x1 = 0.4008	7.86
323.15 K, x1 = 0.4008	7.16

COc1ccccc1 + CCCCO
viscosity [mPa·s]
Settings	303 K	303.15 K	313 K	313.15 K	323 K	323.15 K
100 kPa, x1 = 0.121	1.831	–	1.255	–	1.031	–
100 kPa, x1 = 0.236	1.534	–	1.069	–	0.8722	–
100 kPa, x1 = 0.346	1.297	–	0.9238	–	0.7426	–
100 kPa, x1 = 0.452	1.128	–	0.8353	–	0.6858	–
100 kPa, x1 = 0.553	1.049	–	0.7844	–	0.6551	–
100 kPa, x1 = 0.65	0.9984	–	0.7302	–	0.6131	–
100 kPa, x1 = 0.742	0.9819	–	0.7012	–	0.5948	–
100 kPa, x1 = 0.832	0.9796	–	0.6884	–	0.5673	–
100 kPa, x1 = 0.918	0.9769	–	0.6724	–	0.5517	–
101.33 kPa, x1 = 0.1002	–	1.874	–	1.48	–	1.165
101.33 kPa, x1 = 0.2	–	1.523	–	1.254	–	0.989
101.33 kPa, x1 = 0.3001	–	1.359	–	1.075	–	0.899
101.33 kPa, x1 = 0.3998	–	1.197	–	0.975	–	0.806
101.33 kPa, x1 = 0.5	–	1.079	–	0.889	–	0.75
101.33 kPa, x1 = 0.6002	–	1.001	–	0.851	–	0.734
101.33 kPa, x1 = 0.7	–	0.952	–	0.805	–	0.721
101.33 kPa, x1 = 0.8003	–	0.929	–	0.788	–	0.709
101.33 kPa, x1 = 0.9	–	0.914	–	0.772	–	0.698
